pIC50: −log10 of the molar value. Each block holds one molecule with its values, some of them ahead of it.
What was measured:
HeLa cells [1] = test: MTT cell viability assay, HeLa; format: cell-based; settings: Homo sapiens, 72 h
Procedure: Cell viability was assessed by using 3-(4,5-dimethylthiazol-2-y1)-2,5-diphenyltetrazolium bromide (MTT) assay (Sigma-Aldrich, Milan, Italy), as already reported. In brief, MCF-7 and HeLa cells (2 × 10^4 cells/well) were seeded in a 48-well plate and grown in complete medium overnight, then they were switched into DMEM-F12 supplemented with 2% FBS and treated with increasing concentrations (1, 10, 50, 75, and 100 µM) of different oxazolidin-2-ones derivatives (OA-OI) or doxorubicin for 72 h. Untreated cells were added with the vehicle (DMSO) and used as a control. After treatment, fresh MTT reagent (used at a final concentration of 0.5 mg/mL) was added, prolonging incubation for 2 h according to the manufacturer’s protocol. Absorbance at 570 nm was measured in each well, including controls, and every experiment was carried out in triplicate.
(§1) For each sample, mean absorbance was expressed as a percentage of the control and plotted vs. drug concentration, in order to determine the IC50 value (i.e., drug concentration able to decrease cell viability by 50% with respect to the control) for each cell line, generating a sigmoidal dose–response curve by the use of GraphPad Prism 7 software (GraphPad Inc., San Diego, CA, USA). Mean values and standard deviations (SD) of three independent experiments carried out in triplicate were reported. […]

MCF-7 cells [2] = test: MTT cell viability assay, MCF-7; format: cell-based; settings: Homo sapiens, MCF7, 72 h
Procedure: Cell viability was assessed by using 3-(4,5-dimethylthiazol-2-y1)-2,5-diphenyltetrazolium bromide (MTT) assay (Sigma-Aldrich, Milan, Italy), as already reported. […] Untreated cells were added with the vehicle (DMSO) and used as a control. After treatment, fresh MTT reagent (used at a final concentration of 0.5 mg/mL) was added, prolonging incubation for 2 h according to the manufacturer’s protocol. Absorbance at 570 nm was measured in each well, including controls, and every experiment was carried out in triplicate.
as §1

MCF-10A cells [3] = test: MTT cell viability assay, MCF-10A; format: cell-based, human; settings: for pIC50: Homo sapiens, MCF-10A, 72 h
MCF-7 cells [4] = test: Cell cycle analysis (PI staining, flow cytometry), MCF-7; format: cell-based, human; settings: MCF-7, 15 µM, 24 h
Procedure: (§2) In order to assess cell cycle analysis, MCF-7 and HeLa cells were seeded in 6-well plates, at a density of 2.5 × 10^5 cells/well, then they were added to DMSO or treated using 15 and 30 µM OI, respectively, for 24 h. MCF-10A were seeded as described before, then they were added to DMSO or treated using 30 µM OI, the highest concentration used for cancer cells, for 24 h. Next, cells were harvested by trypsinization, rinsed twice with cold PBS, and pelleted by centrifugation at 1500 rpm for 5 min. Pellets were re-suspended in 70% ice-cold ethanol for 30 min at 4 °C to perform cell fixation. Then, samples were rinsed twice with PBS and stained using a solution containing 3.8 mM sodium citrate (Sigma-Aldrich, Milan, Italy), 100 μg/mL RNAse (Sigma-Aldrich, Milan, Italy), 50 μg/mL propidium iodide (PI, Sigma-Aldrich, Milan, Italy), and 0.1% Igepal (Sigma-Aldrich, Milan, Italy) in PBS for 1 h at 37 °C. Subsequent cytofluorimetric analysis was achieved by BD FACSJazz™ Cell Sorter (Becton Dickinson, Franklin Lakes, NJ, USA).

HeLa cells [5] = test: Cell cycle analysis (PI staining, flow cytometry), HeLa; format: cell-based, human; settings: 30 µM, 24 h
Procedure: as §2

MCF-10A cells [6] = test: Cell cycle analysis (PI staining, flow cytometry), MCF-10A; format: cell-based, human; settings: 30 µM, 24 h
Procedure: as §2

MCF-7 cells [7] = test: TUNEL assay, MCF-7; format: cell-based, human; settings: MCF-7, 15 µM, 72 h; control 2.3%
Procedure: (§3) Apoptosis was tested by enzymatic labeling of DNA strand breaks using terminal deoxynucleotidyl transferase-mediated deoxyuridine triphosphate nick end-labeling (TUNEL) assay, following the guidelines of the manufacturer (TUNEL assay kit, Promega, Madison, WI, USA). Briefly, MCF-7 and HeLa cells were added with DMSO or treated with 15 and 30 µM OI, respectively, for 72 h. MCF-10A were added to DMSO or treated using 30 µM OI, for 72 h. Next, nuclear staining was achieved using 0.2 mg/mL 4′,6- diamidino-2-phenylindole (DAPI, Sigma-Aldrich, Milan, Italy) and samples were examined using a fluorescent microscope (Olympus BX4 equipped with CSV1.14 software employing a CAMXC-30 for image acquisition). Images were representative of three independent experiments.

HeLa cells [8] = test: TUNEL assay, HeLa; format: cell-based, human; settings: 30 µM, 72 h, control 10%
Procedure: as §3

MCF-10A cells [9] = test: TUNEL assay, MCF-10A; format: cell-based, human; settings: 30 µM, 72 h
Procedure: as §3

[10] = test system: cyclin D1, CDK4, phosphorylated Rb in MCF-7 cells; test: Western blot of cell cycle regulators, MCF-7; format: cell-based, human; settings: MCF-7, 15 µM, 24 and 72 h
Procedure: (§4) Western blot analysis was conducted basically as previously reported. […] In order to obtain total cell lysates, harvested cells were lysed using 200 μL of lysis buffer as previously reported. Cytosolic and mitochondrial fractions were isolated as already described. Identical amounts of proteins from total lysate, mitochondrial, or cytosolic fraction were resolved on SDS-polyacrylamide gel, blotted to nitrocellulose membrane, and probed with proper primary antibodies (Santa Cruz Biotechnology, Dallas, TX, USA). Immunoreactive products were identified by using ECL Western blotting detection system (Bio-Rad Laboratories, Hercules, CA, USA).

[11] = test system: procaspases -8 and -9 in MCF-7 cells; test: Western blot of procaspases -8 and -9, MCF-7; format: cell-based, human; settings: MCF-7, 15 µM, 24 and 72 h
Procedure: as §4

[12] = test system: procaspases -8 and -9 in HeLa cells; test: Western blot of procaspases -8 and -9, HeLa; format: cell-based, human; settings: 30 µM, 24 and 72 h
Procedure: as §4

MCF-7 cells [13] = test: Mitochondrial staining (MitoTracker Orange / Deep-Red, FACS), MCF-7; format: cell-based, human; settings: MCF-7, 15 µM, 24 h
Procedure: (§5) Mitochondrial activity was assessed using MitoTracker Orange (Invitrogen, Milan, Italy), a fluorescent dye that enters mitochondria in a membrane potential-dependent way. Mitochondrial mass was determined using MitoTracker Deep-Red (Invitrogen, Milan, Italy), a far red-fluorescent dye that is largely used to label mitochondria. Both MCF-7 and HeLa cells were treated using 15 and 30 µM OI, respectively, for 24 h. Control cells were added with DMSO and simultaneously processed. Then, cells were incubated in the dark for 30–60 min at 37 °C with pre-warmed MitoTracker staining solution (diluted in PBS/CM to reach a final concentration of 10 nM). All the next steps were still carried out in the dark. Cells were rinsed in PBS, harvested, and re-suspended in 300 μL of PBS/CM. Cells were then examined by flow cytometry using Fortessa (BD Bioscience, San Jose, CA, USA). Data analysis was performed using FlowJo software (Tree Star Inc., Ashland, OR, USA).

HeLa cells [14] = test: Mitochondrial staining (MitoTracker Orange / Deep-Red, FACS), HeLa; format: cell-based, human; settings: 30 µM, 24 h
Procedure: as §5

[15] = test system: cytochrome c in MCF-7 cells; test: Western blot of cytochrome c in cytosolic and mitochondrial fractions, MCF-7; format: cell-based, human; settings: MCF-7, 15 µM, 24 h, vs control
Procedure: (§6) Both MCF-7 and HeLa cells were cultured in 100 mm dishes (1 × 10^7 cells/dish), added with the vehicle alone (DMSO) or treated for 24 h with 15 and 30 µM OI, respectively. Then, mitochondria extraction was performed as previously described. In brief, cells were harvested, resuspended in isolation buffer for cells (IBC, containing 200 mM sucrose, 10 mM Tris/MOPS, 1 mM EDTA/Tris, pH 7.4), and homogenized by a glass potter homogenizer. Nuclei and unbroken cells were removed by centrifugation (600× g for 10 min). Supernatants were centrifuged for 30 min at 10,000× g, obtaining upper cytosolic fractions and mitochondrial pellets; the latter were resuspended in RIPA buffer (PBS pH 7.4, 1% NP-40, 0.5% sodium deoxycholate, and 0.1% sodium dodecyl sulfate) containing a protease and phosphatase inhibitor cocktail (Sigma-Aldrich, Milan, Italy). Protein concentration was determined using Bio-Rad Protein Assay (Bio-Rad Laboratories, Hercules, CA, USA) and Western blotting was performed as next described.
(§7) Western blot analysis was conducted basically as previously reported. In detail, MCF-7 and HeLa cells were grown to 70–80% confluence, added to DMSO, or treated with 15 and 30 µM OI, respectively, for 24 h. In order to obtain total cell lysates, harvested cells were lysed using 200 μL of lysis buffer as previously reported. Cytosolic and mitochondrial fractions were isolated as already described. […]

[16] = test system: cytochrome c in HeLa cells; test: Western blot of cytochrome c in cytosolic and mitochondrial fractions, HeLa; format: cell-based, human; settings: 30 µM, 24 h, vs control
Procedure: as §6, §7

MCF-7 cells [17] = test: ROS production (CM-H2DCFDA, FACS), MCF-7; format: cell-based, human; settings: 24 h
Procedure: (§8) Intracellular level of reactive oxygen species (ROS) was assessed by using CM-H2DCFDA (Invitrogen, Milan, Italy), a cell-permeable fluorogenic probe, which is deacetylated by intracellular esterases and can be oxidized in the presence of intracellular ROS, becoming highly fluorescent. MCF-7 and HeLa cells were seeded into 96-well tissue culture plates at a density of 5 × 10^4 cells/well and treated with 15 and 30 µM OI, respectively, for 24 h. Control cells were added with DMSO and processed at the same time. Then, cells were washed with PBS and stained in the dark with CM-H2DCFDA (diluted in PBS/CM to a final concentration of 1 μM) for 20 min at 37 °C. Next steps were also performed in the dark, in order to avoid probe oxidation. Cells were washed three times with PBS, harvested, re-suspended in PBS/CM, and fluorescence was measured by using Fortessa (BD Bioscience, San Jose, CA, USA). ROS levels were estimated by using mean fluorescent intensity of the viable cell population. Results were analyzed by the use of FlowJo software (Tree Star Inc., Ashland, OR, USA).

HeLa cells [18] = test: ROS production (CM-H2DCFDA, FACS), HeLa; format: cell-based, human; settings: 24 h
Procedure: as §8

- pIC50 (HeLa cells [1]): 4.00
- pIC50 (MCF-7 cells [2]): 3.79
Compound: CCN(CC)C(=O)/C=C1\OC(=O)N(Cc2ccccc2)C1(C)C [OC]
- pIC50 (MCF-10A cells [3]): 3.31

- pIC50 (HeLa cells [1]): 3.87
- pIC50 (MCF-7 cells [2]): 3.46
Compound: CC1(C)/C(=C/C(=O)N2CCOCC2)OC(=O)N1Cc1ccccc1 [OG]
- pIC50 (MCF-10A cells [3]): 3.17

- pIC50 (HeLa cells [1]): 3.89
- pIC50 (MCF-7 cells [2]): 3.52
Compound: CCCCN1C(=O)O/C(=C\C(=O)N2CCOCC2)C12CCCCC2 [OE]
- pIC50 (MCF-10A cells [3]): 3.01

- pIC50 (HeLa cells [1]): 4.51
- pIC50 (MCF-7 cells [2]): 4.75
Compound: CCN(CC)C(=O)/C=C1/OC(=O)N(Cc2ccccc2)C1(C)C [OI, (E)-2-(3-benzyl-4,4-dimethyl-2-oxooxazolidin-5-ylidene)-N,N-diethylacetamide]
- pIC50 (MCF-10A cells [3]): 3.45
- anti-proliferative effect / cytotoxicity on non-tumorigenic MCF-10A cells (MCF-10A cells [3]; up to 72 h): no significant anti-proliferative effect
- increase of the percentage of cells in the G0/G1 phase (MCF-7 cells [4]): 15%
- reduction of the fraction of cells in the S-phase (MCF-7 cells [4]): 30%
- cells in the G1 phase (HeLa cells [5]): remarkable increase
- cells in the S phase (HeLa cells [5]): considerable decrease
- effect on the cell cycle (MCF-10A cells [6]): did not evidence any noticeable effect
- apoptotic rate (TUNEL-positive cells) (MCF-7 cells [7]): 34.3%
- apoptotic rate (TUNEL-positive cells) (HeLa cells [8]): 53.2%
- effect in TUNEL assay (MCF-10A cells [9]): did not evidence any noticeable effect
- CDK4 protein expression levels [10]: remained unaffected
- cyclin D1 protein content ([10]; time dependent): significantly reduced
- phosphorylated Rb protein content ([10]; time dependent): significantly reduced
- expression level of activated caspase-8 [11]: unaffected
- proteolytic cleavage of pro-caspase-9 into its active form [11]: time-dependently activated
- expression level of activated caspase-8 [12]: unaffected
- proteolytic cleavage of pro-caspase-9 into its active form [12]: time-dependently activated
- mitochondrial mass (MitoTracker Deep-Red) (MCF-7 cells [13]): decrease
- mitochondrial membrane potential (MitoTracker Orange) (MCF-7 cells [13]): decrease
- mitochondrial membrane potential per mitochondria (ratio Orange vs. Deep-Red) (MCF-7 cells [13]): significantly decreased
- mitochondrial mass (MitoTracker Deep-Red) (HeLa cells [14]): decrease
- mitochondrial membrane potential (MitoTracker Orange) (HeLa cells [14]): decrease
- mitochondrial membrane potential per mitochondria (ratio Orange vs. Deep-Red) (HeLa cells [14]): significantly decreased
- cytochrome c levels in the cytosolic fraction [15]: significant increases
- cytochrome c mitochondrial levels [15]: concomitant decreases
- cytochrome c levels in the cytosolic fraction [16]: significant increases
- cytochrome c mitochondrial levels [16]: concomitant decreases
- ROS increase in the presence of NAC (MCF-7 cells [17]; MCF-7, 15 µM OI + NAC): no longer evident
- ROS generation (MCF-7 cells [17]; MCF-7, 15 µM, vs control): significantly stimulated
- ROS increase in the presence of NAC (HeLa cells [18]; 30 µM OI + NAC): no longer evident
- ROS generation (HeLa cells [18]; 30 µM, vs control): significantly stimulated

- pIC50 (HeLa cells [1]): 4.01
- pIC50 (MCF-7 cells [2]): 3.91
Compound: CC1(C)/C(=C/C(=O)N2CCCCC2)OC(=O)N1Cc1ccccc1 [OB]
- pIC50 (MCF-10A cells [3]): 3.33
